Earlier results, collected in patent US20070010426A1, “Composition for preventing and treating cardiovascular disorders” (Maxluck Biotechnology Corp., priority 2005, published 2007).

Tested on: obese mouse

In the case of chromium picolinate, the “Effect on blood lipids” value is given as “reduce the blood lipids”.
